Columns and labels:
[1] = test system: respondents with self-reported psychiatric conditions; details: majority of respondents; ritual or recreational use; observational; cited from earlier work
[2] = test system: patients with treatment-resistant major depressive disorder; assay: Clinical trial of inhaled 5-MeO-DMT in TRD patients: safety and tolerability; assay type: in vivo, human
[3] = test system: patients with treatment-resistant major depressive disorder; assay: Clinical trial of inhaled 5-MeO-DMT in TRD patients: depression severity and psychiatric symptom scales
[4] = test system: healthy volunteers; assay: Clinical trial of inhaled 5-MeO-DMT in healthy volunteers: intensity of the psychedelic effects (PPEQ); assay type: in vivo, human
Procedure: The trial consisted of two parts: Part A, where single doses of 5-MeO-DMT dosage amounts of 2 mg, 6 mg, 12 mg and 18 mg were administered; and Part B, where an initial 5-MeO-DMT dosage amount of 6 mg was administered, and then, unless the participant had already experienced a peak psychedelic experience based on the PPEQ or the supervising physician had decided that further dose increases were inappropriate based on observed side effects, further subsequent dosage amounts of 12 mg and 18 mg were administered with about 3 hours in between each administration. […] Pharmacokinetic analysis of 5-MeO-DMT and bufotenine plasma levels was performed at 1 hour and 3 hours after drug administration in Part A, and at 3 hours after drug administration in Part B.
18 participants were recruited into Part A of the study and 4 participants were recruited into Part B. 9 Participants were female and 13 participants were male. Median age was 29 years (range: 19 to 42 years). […]
The Peak Psychedelic Experience Questionnaire (PPEQ) has been developed by the inventor as an improved alternative to the oceanic boundlessness dimension of the ASC and the MEQ30 to allow a simpler and quicker assessment of the intensity of a psychedelic experience. The PPEQ is comprised of three questions, all to be scored from 0 to 100 by marking a Visual Analogue Scale between 0 and 100 mm: • 1. […]

[5] = both patients, single 12 mg inhaled dose
[6] = Patient 1, 2 h after single 12 mg inhaled dose, baseline 1
[7] = Patient 1, 2 h after single 12 mg inhaled dose, baseline 5
[8] = Patient 1, 1 d after single 12 mg inhaled dose, baseline 1
[9] = Patient 1, 1 d after single 12 mg inhaled dose, baseline 5
[10] = Patient 1, 7 d after single 12 mg inhaled dose, baseline 1
[11] = Patient 1, 7 d after single 12 mg inhaled dose, baseline 5
[12] = Patient 2, 2 h after single 12 mg inhaled dose, baseline 5
[13] = Patient 2, 1 d after single 12 mg inhaled dose, baseline 5
[14] = Patient 2, 7 d after single 12 mg inhaled dose, baseline 5
[15] = both patients, after single 12 mg inhaled dose
[16] = both patients, all assessment time points (2 h, 1 d, 7 d) after single 12 mg inhaled dose

## COc1ccc2[nH]cc(CCN(C)C)c2c1 [5-MeO-DMT, 5-methoxy-N,N-dimethyltryptamine]
[1]
  Self-perceived change of psychiatric symptoms (anxiety, depression, substance use problems, post-traumatic stress disorder): perceived improvements in symptoms
[2]; Patient 1, single 12 mg inhaled dose, Day 1
  Reported adverse events: Headache, Flashback
[2]; Patient 1, single 12 mg inhaled dose, Day 7
  Reported adverse events: Headache
[2]; Patient 1, single 12 mg inhaled dose, administration day
  Reported adverse events: Dizziness
[2]; Patient 2, single 12 mg inhaled dose, Day 1
  Reported adverse events: Headache
[2]; Patient 2, single 12 mg inhaled dose, Day 7
  Reported adverse events: None reported
[2]; Patient 2, single 12 mg inhaled dose, administration day
  Reported adverse events: None reported
[2]; both patients, ECG at 3 hours, laboratory at 3 hours and 7 days, CADSS at 3 hours, 1 day, 7 days, cognitive tests at 1 day and 7 days
  Assessments of ECG, safety laboratory analyses, CADSS and cognitive tests (PVT, DSST): unremarkable
[2]; both patients, shortly after single 12 mg inhaled dose, no other noteworthy changes
  Changes in vital parameters: temporary, not clinically relevant increase in heart rate and blood pressure
[2]; [5]
  Severity and course of reported adverse events: mild, short-lasting and resolved spontaneously
  Tolerability of the inhalation procedure: well tolerated with no inhalation-related adverse events
[3]; Patient 1, 2 h after single 12 mg inhaled dose
  PGI-I (7-point scale; 1, Very much improved; 2, Much improved; 7, Very much worse): 1
[3]; [6]
  BPRS Unusual thought content (1-7): 1
  MADRS suicidal thoughts item (0 to 6): 0
[3]; Patient 1, 2 h after single 12 mg inhaled dose, baseline 3
  BPRS Somatic concern (1-7): 2
[3]; Patient 1, 2 h after single 12 mg inhaled dose, baseline 4
  BPRS Tension (1-7): 3
[3]; [7]
  BPRS Guilt feelings (1-7): 1
  PGI-S (7-point scale; 1, Normal, not at all ill; 7, Extremely ill): 1
[3]; Patient 1, 2 h after single 12 mg inhaled dose, baseline 6
  BPRS Depressive Mood (1-7): 2
[3]; Patient 1, 2 h after single 12 mg inhaled dose, baseline 7
  BPRS Anxiety (1-7): 2
[3]; Patient 1, 2 h after single 12 mg inhaled dose, baseline 31, sleep item carried forward from baseline
  MADRS (overall score 0 to 60): 10
[3]; Patient 1, 2 h after single 12 mg inhaled dose, baseline 42
  BPRS (total, 18 symptoms each rated 1-7): 27
[3]; Patient 1, 2 h after single 12 mg inhaled dose, baseline Yes
  C-SSRS Suicidal Ideation (any of the suicidal ideation items present): No
[3]; Patient 1, 1 d after single 12 mg inhaled dose
  PGI-I (7-point scale; 1, Very much improved; 2, Much improved; 7, Very much worse): 1
[3]; [8]
  BPRS Unusual thought content (1-7): 1
  MADRS suicidal thoughts item (0 to 6): 0
[3]; Patient 1, 1 d after single 12 mg inhaled dose, baseline 3
  BPRS Somatic concern (1-7): 1
[3]; Patient 1, 1 d after single 12 mg inhaled dose, baseline 4
  BPRS Tension (1-7): 1
[3]; [9]
  BPRS Guilt feelings (1-7): 1
  PGI-S (7-point scale; 1, Normal, not at all ill; 7, Extremely ill): 1
[3]; Patient 1, 1 d after single 12 mg inhaled dose, baseline 6
  BPRS Depressive Mood (1-7): 1
[3]; Patient 1, 1 d after single 12 mg inhaled dose, baseline 7
  BPRS Anxiety (1-7): 1
[3]; Patient 1, 1 d after single 12 mg inhaled dose, baseline 31
  MADRS (overall score 0 to 60): 8
[3]; Patient 1, 1 d after single 12 mg inhaled dose, baseline 42
  BPRS (total, 18 symptoms each rated 1-7): 18
[3]; Patient 1, 1 d after single 12 mg inhaled dose, baseline Yes
  C-SSRS Suicidal Ideation (any of the suicidal ideation items present): No
[3]; Patient 1, 7 d after single 12 mg inhaled dose
  PGI-I (7-point scale; 1, Very much improved; 2, Much improved; 7, Very much worse): 1
[3]; [10]
  BPRS Unusual thought content (1-7): 1
  MADRS suicidal thoughts item (0 to 6): 0
[3]; Patient 1, 7 d after single 12 mg inhaled dose, baseline 3
  BPRS Somatic concern (1-7): 1
[3]; Patient 1, 7 d after single 12 mg inhaled dose, baseline 4
  BPRS Tension (1-7): 1
[3]; [11]
  BPRS Guilt feelings (1-7): 1
  PGI-S (7-point scale; 1, Normal, not at all ill; 7, Extremely ill): 1
[3]; Patient 1, 7 d after single 12 mg inhaled dose, baseline 6
  BPRS Depressive Mood (1-7): 1
[3]; Patient 1, 7 d after single 12 mg inhaled dose, baseline 7
  BPRS Anxiety (1-7): 1
[3]; Patient 1, 7 d after single 12 mg inhaled dose, baseline 31
  MADRS (overall score 0 to 60): 3
[3]; Patient 1, 7 d after single 12 mg inhaled dose, baseline 42
  BPRS (total, 18 symptoms each rated 1-7): 18
[3]; Patient 1, 7 d after single 12 mg inhaled dose, baseline Yes
  C-SSRS Suicidal Ideation (any of the suicidal ideation items present): No
[3]; Patient 2, 2 h after single 12 mg inhaled dose
  PGI-I (7-point scale; 1, Very much improved; 2, Much improved; 7, Very much worse): 2
[3]; Patient 2, 2 h after single 12 mg inhaled dose, baseline 1
  MADRS suicidal thoughts item (0 to 6): 0
[3]; Patient 2, 2 h after single 12 mg inhaled dose, baseline 3
  BPRS Tension (1-7): 1
[3]; Patient 2, 2 h after single 12 mg inhaled dose, baseline 4
  BPRS Somatic concern (1-7): 1
[3]; [12]
  BPRS Anxiety (1-7): 2
  BPRS Depressive Mood (1-7): 3
  BPRS Guilt feelings (1-7): 1
  PGI-S (7-point scale; 1, Normal, not at all ill; 7, Extremely ill): 1
[3]; Patient 2, 2 h after single 12 mg inhaled dose, baseline 6
  BPRS Unusual thought content (1-7): 1
[3]; Patient 2, 2 h after single 12 mg inhaled dose, baseline 33, sleep item carried forward from baseline
  MADRS (overall score 0 to 60): 9
[3]; Patient 2, 2 h after single 12 mg inhaled dose, baseline 45
  BPRS (total, 18 symptoms each rated 1-7): 26
[3]; Patient 2, 2 h after single 12 mg inhaled dose, baseline No
  C-SSRS Suicidal Ideation (any of the suicidal ideation items present): No
[3]; Patient 2, 1 d after single 12 mg inhaled dose
  PGI-I (7-point scale; 1, Very much improved; 2, Much improved; 7, Very much worse): 2
[3]; Patient 2, 1 d after single 12 mg inhaled dose, baseline 1
  MADRS suicidal thoughts item (0 to 6): 1
[3]; Patient 2, 1 d after single 12 mg inhaled dose, baseline 3
  BPRS Tension (1-7): 1
[3]; Patient 2, 1 d after single 12 mg inhaled dose, baseline 4
  BPRS Somatic concern (1-7): 1
[3]; [13]
  BPRS Anxiety (1-7): 1
  BPRS Depressive Mood (1-7): 1
  BPRS Guilt feelings (1-7): 1
  PGI-S (7-point scale; 1, Normal, not at all ill; 7, Extremely ill): 1
[3]; Patient 2, 1 d after single 12 mg inhaled dose, baseline 6
  BPRS Unusual thought content (1-7): 1
[3]; Patient 2, 1 d after single 12 mg inhaled dose, baseline 33
  MADRS (overall score 0 to 60): 5
[3]; Patient 2, 1 d after single 12 mg inhaled dose, baseline 45
  BPRS (total, 18 symptoms each rated 1-7): 19
[3]; Patient 2, 1 d after single 12 mg inhaled dose, baseline No
  C-SSRS Suicidal Ideation (any of the suicidal ideation items present): No
[3]; Patient 2, 7 d after single 12 mg inhaled dose
  PGI-I (7-point scale; 1, Very much improved; 2, Much improved; 7, Very much worse): 2
[3]; Patient 2, 7 d after single 12 mg inhaled dose, baseline 1
  MADRS suicidal thoughts item (0 to 6): 0
[3]; Patient 2, 7 d after single 12 mg inhaled dose, baseline 3
  BPRS Tension (1-7): 1
[3]; Patient 2, 7 d after single 12 mg inhaled dose, baseline 4
  BPRS Somatic concern (1-7): 1
[3]; [14]
  BPRS Anxiety (1-7): 1
  BPRS Depressive Mood (1-7): 1
  BPRS Guilt feelings (1-7): 1
  PGI-S (7-point scale; 1, Normal, not at all ill; 7, Extremely ill): 1
[3]; Patient 2, 7 d after single 12 mg inhaled dose, baseline 6
  BPRS Unusual thought content (1-7): 1
[3]; Patient 2, 7 d after single 12 mg inhaled dose, baseline 33
  MADRS (overall score 0 to 60): 5
[3]; Patient 2, 7 d after single 12 mg inhaled dose, baseline 45
  BPRS (total, 18 symptoms each rated 1-7): 18
[3]; Patient 2, 7 d after single 12 mg inhaled dose, baseline No
  C-SSRS Suicidal Ideation (any of the suicidal ideation items present): No
[3]; [15]
  Other general psychiatric symptoms assessed by the BPRS (somatic concern, anxiety, guilt, tension): improved
  Ratings for suicidality (suicidal thoughts item of the MADRS, C-SSRS Suicidal Ideation items): improved
[3]; [16]
  MADRS remission (MADRS total score equal or less than 10): fulfilled standard criteria
  MADRS response (at least 50% improvement from baseline): fulfilled standard criteria
[3]; [5]
  Time to clinical remission after a single administration: ≤ 2 h
  Time to clinical response after administration: ≤ 2 h
[4]; Part B, 6 mg, then 12 mg and 18 mg about 3 hours apart
  Intensity of the psychedelic experience with dose escalation: increased with the increasing dosage amounts in all participants
[4]; all participants, 2 to 18 mg inhaled
  Onset of the first psychedelic symptoms after the inhalation: within a few seconds
